For this experiment, the target named is FliI ATPase (FliI^WT) (Salmonella enterica, UniProt P26465). The following applies: in the presence of phospholipids; triplicate assays.
Sequence of FliI ATPase (FliI^WT) (P26465 whole entry): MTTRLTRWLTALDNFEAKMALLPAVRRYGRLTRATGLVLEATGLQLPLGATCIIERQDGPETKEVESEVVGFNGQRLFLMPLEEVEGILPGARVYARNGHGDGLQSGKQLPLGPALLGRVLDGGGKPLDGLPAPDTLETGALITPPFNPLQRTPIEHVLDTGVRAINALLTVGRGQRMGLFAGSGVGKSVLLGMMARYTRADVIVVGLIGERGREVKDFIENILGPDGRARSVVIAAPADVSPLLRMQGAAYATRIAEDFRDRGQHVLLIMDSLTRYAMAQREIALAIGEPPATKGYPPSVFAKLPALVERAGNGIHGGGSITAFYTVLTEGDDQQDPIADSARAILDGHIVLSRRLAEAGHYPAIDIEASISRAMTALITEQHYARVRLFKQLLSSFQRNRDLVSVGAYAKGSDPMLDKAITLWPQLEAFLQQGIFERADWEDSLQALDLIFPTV

As for `Nc1ncnc2c1ncn2[C@@H]1O[C@H](COP(=O)(O)OP(=O)(O)OP(=O)(O)O)[C@@H](O)[C@H]1O` [ATP], the Km is on record as 1 ± 15% mM.

These data come from publication PMC2546511 (Journal of Molecular Biology, 2007).
